Data on three compounds can be found in article PMC7308271, “Discovery of a new class of orthosteric antagonists with nanomolar potency at extrasynaptic GABAA receptors” (Scientific Reports, 2020).

Structures are written as SMILES. Read-outs that look alike come from different tables or passages of the source.

The test has as its target T1, human α1β2δ GABAΑ receptor (Homo sapiens, UniProt P14867+P47870).
T1 construct: expressed in transfected cells; host or cells: δ-HEK (HEK293 Flp-In stably expressing human δ), transiently transfected with α and β 1:1
T1 sequence (P14867 28-456): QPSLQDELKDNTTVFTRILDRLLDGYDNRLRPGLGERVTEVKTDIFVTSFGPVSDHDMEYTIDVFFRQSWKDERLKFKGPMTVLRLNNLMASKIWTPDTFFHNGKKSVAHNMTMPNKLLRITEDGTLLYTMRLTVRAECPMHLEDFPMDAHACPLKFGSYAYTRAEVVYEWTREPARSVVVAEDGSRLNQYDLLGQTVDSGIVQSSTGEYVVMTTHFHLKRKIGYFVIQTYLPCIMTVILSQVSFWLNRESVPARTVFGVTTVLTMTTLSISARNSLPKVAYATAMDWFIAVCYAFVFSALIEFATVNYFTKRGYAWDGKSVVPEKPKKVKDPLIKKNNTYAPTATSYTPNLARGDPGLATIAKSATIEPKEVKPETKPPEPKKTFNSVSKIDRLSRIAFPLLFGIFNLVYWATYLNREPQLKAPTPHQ
T1 sequence (P47870 25-512 limits assumed): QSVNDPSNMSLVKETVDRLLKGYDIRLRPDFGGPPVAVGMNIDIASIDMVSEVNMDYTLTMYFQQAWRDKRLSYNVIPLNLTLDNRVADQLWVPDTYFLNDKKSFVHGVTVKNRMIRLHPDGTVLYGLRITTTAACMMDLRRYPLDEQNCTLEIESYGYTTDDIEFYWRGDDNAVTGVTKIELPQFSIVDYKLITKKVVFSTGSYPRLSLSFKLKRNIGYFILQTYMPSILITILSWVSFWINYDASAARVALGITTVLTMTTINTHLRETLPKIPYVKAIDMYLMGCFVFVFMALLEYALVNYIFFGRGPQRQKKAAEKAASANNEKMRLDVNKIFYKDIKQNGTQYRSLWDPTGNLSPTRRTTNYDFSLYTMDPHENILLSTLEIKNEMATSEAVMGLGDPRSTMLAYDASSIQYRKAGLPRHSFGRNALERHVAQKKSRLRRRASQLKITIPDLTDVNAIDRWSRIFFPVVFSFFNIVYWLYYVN
T1 sequence (O14764 25-452 partner): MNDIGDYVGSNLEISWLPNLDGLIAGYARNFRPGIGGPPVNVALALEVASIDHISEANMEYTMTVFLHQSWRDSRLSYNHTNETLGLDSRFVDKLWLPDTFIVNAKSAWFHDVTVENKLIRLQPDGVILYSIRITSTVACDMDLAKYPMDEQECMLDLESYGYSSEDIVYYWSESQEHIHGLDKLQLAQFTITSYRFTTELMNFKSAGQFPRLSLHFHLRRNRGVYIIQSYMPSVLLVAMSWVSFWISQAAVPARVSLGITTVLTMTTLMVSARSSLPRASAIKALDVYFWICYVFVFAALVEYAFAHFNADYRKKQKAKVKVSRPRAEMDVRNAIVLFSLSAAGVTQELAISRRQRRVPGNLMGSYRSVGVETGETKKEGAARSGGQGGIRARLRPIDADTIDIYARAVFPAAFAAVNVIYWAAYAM
The experiment in a line: FMP assay at α1β2δ GABAA receptors in HEK cells. Format: cell-based. The protocol:
HEK293 cells were maintained in DMEM containing GlutaMAX-I, supplemented with 10% FBS and 1% penicillin-streptomycin and incubated at 37 °C and a humidity of 5% CO2. For expression of δ-containing GABAΑ receptors, a HEK293 Flp-In^ΤΜ cell line stably expressing the human GABAΑ δ-subunits (referred to as δ-HEK) was used and the γ-containing subtypes was expressed in a background HEK293 Flp-In^ΤΜ cell line stably expressing the G-protein coupled peptide receptor NPBWR2 (referred to as HEK background)[26], both positively selected for using 200 μg/mL hygromycin B. α1β2γ2 receptors were stably expressed in a HEK293 cell line maintained as above but with no selection (gift from Marianne L. Jensen, Neurosearch).
To express recombinant GABAΑ receptors human α1, α2, α3, α5, α6, β2, γ2 (pcDNA3.1/Zeo) and α4, β1 (pUNIV)[26] subunit cDNA were transiently transfected into either δ-HEK or HEK background cells. δ-HEK cells were transfected with α- and β-subunits in a 1:1 ration whereas HEK background cells were transfected with α-, β- and γ-subunits in a 1:1:2 ratio. Human BGT1 (pcDNA5/FRT)[43] was transiently transfected into the δ-HEK cell line. δ-HEK cells transfected for whole-cell patch-clamp recordings were co-transfected with green fluorescent protein (GFP) as well as α- and β-subunits in a 0.5:1:1 ratio (0.8 μg + 1.6 μg + 1.6 μg in a 6 cm dish) in order to identify transfected cells. The transfection was carried out using Polyfect as transfection reagent according to the manufactures protocol expect for using half the recommended volume of Polyfect.
The FMP assay was performed as previously described with a few modifications. Briefly, HEK cells were transfected as described[26] and 16–20 hours later plated (50,000 cells/well in DMEM medium) into clear-bottomed black 96-well plates coated with poly-D-lysine and the assay performed 20–28 hours later. The assay protocol including the FMP blue dye incorporation into membranes was exactly as described in Falk-Petersen et al.[26]. […] Data was obtained as changes in fluorescence units (∆RFU) by measuring emission at 560 nm caused by excitation at 530 nm. Unless otherwise mentioned in the text or figure legends experiments were performed in at least three independent experiments each using three technical replicates. Due to an observed edge effect for the FMP assay, outer wells were not used except for the screening.
Data obtained in the FMP assay are given as relative changes in fluorescence units (ΔRFU) by subtracting the average of the baseline fluorescence signal from the peak fluorescence signal after compound addition. All raw traces were inspected manually and peak signals resulting from compound/buffer addition together with signal artefacts were omitted from the analysis.
The concentration-response curves obtained in the FMP assay for both agonists (determining EC50 values) and antagonists (determining IC50 values) were fitted using the four-parameter concentration-response model: Response=bottom+top−bottom/1+10^[(logEC50-A)⋅nH] EC/IC50 values describe the concentration resulting in the half-maximal response (halfway between top and bottom), and nΗ is the Hill coefficient. […] Gaddum Schild analysis was performed using GraphPad Prism version 8.2.1 (GraphPad Software Inc., San Diego, CA, USA). EC50/IC50 values obtained in the FMP assay are given as means ± SEM from at least three independent experiments with three technical replicates, as specified in the individual figure legends.

Where [1] appears, read: antagonist activity vs GABA EC80 10–14 μM, mean, read-out: IC50.
[2] abbreviates: vs GABA EC80, read-out: pIC50 ± SEM (converted).

For the compound `NCCCC(=O)O` [GABA], the “GABA EC80” value (calculated from GABA potencies, used in antagonist tests) is 10 to 14 µM.
For `O=C(Nc1cccc(C(=O)N2CCC3(CCNCC3)CC2)c1)c1cccs1` [compound 018, N-(3-(3,9-diazaspiro[5.5]undecane-3-carbonyl)phenyl)thiophene-2-carboxamide], the IC50 is 0.24 µM under setting [1] and 0.245 µM under setting [2].
For the compound `CC(=O)Nc1cccc(C(=O)N2CCC3(CCNCC3)CC2)c1` [compound 2027, N-(3-(3,9-diazaspiro[5.5]undecane-3-carbonyl)phenyl)acetamide], the “potency reduction of 2027 compared to 018” value is given as 28 times. For the same compound, the IC50 under setting [1] came out at 6.68 µM. Besides, the IC50 under setting [2] is 6.76 µM.
